According to patent US11612586B2, “Indole regulation of antigen presenting cells” (THE TEXAS A&M UNIVERSITY SYSTEM, priority 2016, dated 2023):

Key:
TNF = TNF production in splenic macrophages ex vivo; format: cell-based, mouse; settings: indole overnight
Protocol: Similarly, the ex vivo indole conditioning of splenocytes was repeated with tissues from AhR-deficient and wild-type mice and analyzed TNF production. […] Importantly, in this set of experiments splenocytes were stimulated with LPS, heat-killed S. typhimurium, and CpG. […] Specifically, BMDMs were generated from WT or AhR-KO mice and treated with indole (1 mM) or DMF control for 18 hours. BMDMs were then stimulated with IL-6 (10 ng/ml) for the given times and stained for phospho-Stat3, which was detected by flow cytometry.

IL-12 = IL-12 production in BMDMs, intracellular staining, flow cytometry; format: cell-based, mouse
Protocol: BMDMs were treated with indole or DMF control for 18 hours or 4 hours, followed by stimulation with LPS (2 ug/ml or 250 ng/ml) for 4 hours in the presence of Golgiplug. BMDMs were then stained for intracellular TNF or IL-12 and analyzed by flow cytometry.
First, pro-inflammatory cytokine production in macrophages was investigated. […] In the DC study described herein, DCs were typically conditioned with indole during their development from bone marrow precursors in order to mimic the proximity of DC progenitor cells to indole in the intestinal microenvironment during development. […] BMDMs were treated for 18 hours with indole, followed by a 4 hour stimulation with either a very high (2 ug/ml) or low (250 ng/ml) dose of LPS.
Additionally, to determine if recently arrived macrophage precursors might also be affected, BMDMs were next treated for just 4 hours with indole, followed by a […] stimulation with the same LPS concentrations.
To address the question of indole and AhR dependence in macrophages, experiments using BMDMs derived from AhR-knockout mice were run alongside wild-type littermate controls. Specifically, flow cytometric analysis of BMDMs was performed on WT or AhR-KO mice and treated with indole or DMF control for 18 hours. BMDMs were stimulated for 4 hours with LPS (50 ng/ml) in the presence of Golgiplug, then stained for intracellular TNF (left panels) and IL-12 (right panels).
The inventors performed a series of assays where bone marrow derived macrophages (BMDMs), bone marrow derived dendritic cells (BMDCs), and splenic dendritic cells (splenic DCs), were exposed to a series of TDMMs, including indole, indole-3-acetate (I3AT), 5-hydroxyindole (5HI), and indole-3-pyruvate (I3P), as well as indole-3-carbinol (I3C; a plant derived compound) to be used for a positive control (1 mM for 24 hours). The BMDMs and BMDCs were stimulated with LPS for 4 hours and assayed at day 7 for expression of various pro-inflammatory cytokines. In a similar assay, the BMDMs and BMDCs were stimulated with LPS or CpG, respectively, for 15 minutes and assayed for pAKT and pERK signaling, which is a reflection of pro-inflammatory response.
Bone marrow was harvested as described above and cultured at a density of 1×10^6 cells in 10 ml complete media supplemented with 10 ng/ml M-CSF (Peprotech) in 100 mm×15 mm petri dishes. Media with cytokine was replenished on day 3. Adherent and semi-adherent cells were recovered on day 7, plated, and treated with indole prior to downstream experiments.

c1ccc2[nH]ccc2c1 [Indole, indole]
inhibition of TNF production (TNF; splenic macrophages from WT or AhR-KO mice, LPS, HK-STM or CpG 6 hours): marked inhibition
inhibition of TNF production compared to solvent controls (TNF; splenic macrophages, LPS or heat-killed S. typhimurium): 75%
reduction of IL-12 production (IL-12; BMDMs from WT or AhR-KO mice, 1 mM indole 18 hours, LPS 50 ng/ml 4 hours): approximately 2 fold
IL-12 (IL-12; BMDMs, 1 mM TDMM 24 hours, LPS 1 ug/ml 4 hours): ↓↓↓
inhibition of IL-12 production (IL-12; BMDMs, 1 mM indole 18 hours, LPS 2 ug/ml or 250 ng/ml 4 hours): ~2 fold
